IC50 data for 30 compounds are collected here from ChEMBL document CHEMBL1145754, “Design and synthesis of statine-containing BACE inhibitors” (Bioorg Med Chem Lett, 2003).

Non-standard residues stand in square brackets, D forms with d. Residues, ends and D or L forms follow the SMILES beside them. *: point of attachment. Sta = CC(C)C[C@H](N)[C@@H](O)CC(=O)O; 3Amb = NCc1cccc(C(=O)O)c1; Nle = CCCC[C@H](N)C(=O)O; Nva = CCC[C@H](N)C(=O)O; X1 = O=C(C1CCCCO1)* Bounds are passed on as bounds.

Beta-secretase 1, sequence (P56817 whole entry): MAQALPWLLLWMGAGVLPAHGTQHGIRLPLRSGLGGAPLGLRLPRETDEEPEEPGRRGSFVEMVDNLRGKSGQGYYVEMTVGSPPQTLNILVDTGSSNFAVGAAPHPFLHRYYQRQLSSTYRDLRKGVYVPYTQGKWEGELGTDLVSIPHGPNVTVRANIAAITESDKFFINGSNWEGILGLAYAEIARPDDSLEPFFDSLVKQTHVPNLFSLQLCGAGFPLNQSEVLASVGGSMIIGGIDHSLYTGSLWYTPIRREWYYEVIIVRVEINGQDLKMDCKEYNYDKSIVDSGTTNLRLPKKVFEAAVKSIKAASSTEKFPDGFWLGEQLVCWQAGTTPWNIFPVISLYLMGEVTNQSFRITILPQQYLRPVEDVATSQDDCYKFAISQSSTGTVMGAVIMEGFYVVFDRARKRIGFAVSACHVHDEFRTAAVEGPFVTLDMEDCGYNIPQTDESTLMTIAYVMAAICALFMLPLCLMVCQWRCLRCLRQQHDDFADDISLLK

The test addresses Beta-secretase 1 (Homo sapiens, UniProt P56817). The experiment in a line: Inhibition of human beta-secretase.
The IC50 is the concentration that gives 50% inhibition. Low values mean higher potency, high ones lower potency. As for `CC(=O)N[C@@H](CC(C)C)C(=O)N[C@@H](C)C(=O)N[C@@H](CC(C)C)[C@@H](O)CC(=O)N[C@H](C(=O)NCc1cccc(C(=O)O)c1)C(C)C`, the IC50 is 520 nM. To `CSCC[C@H](NC(=O)[C@H](CC(C)C)NC(C)=O)C(=O)N[C@@H](CC(C)C)[C@@H](O)CC(=O)N[C@H](C(=O)NCc1cccc(C(=O)O)c1)C(C)C` belongs 890 nM. To `CC[C@@H](C)[C@@H](NC(C)=O)C(=O)N[C@@H](C)C(=O)N[C@@H](CC(C)C)[C@@H](O)CC(=O)N[C@H](C(=O)NCc1cccc(C(=O)O)c1)C(C)C` belongs above 91000 nM.

In turn, `CC[C@H](C)[C@H](NC(C)=O)C(=O)N[C@@H](C)C(=O)N[C@@H](CC(C)C)[C@@H](O)CC(=O)N[C@H](C(=O)NCc1cccc(C(=O)O)c1)C(C)C` registered an IC50 of 250 nM. The value for `CSCC[C@@H](NC(=O)[C@H](CC(C)C)NC(C)=O)C(=O)N[C@@H](CC(C)C)[C@@H](O)CC(=O)N[C@H](C(=O)NCc1cccc(C(=O)O)c1)C(C)C` was above 91000 nM; that for `CC(=O)N[C@@H](CC(C)C)C(=O)N[C@H](C)C(=O)N[C@@H](CC(C)C)[C@@H](O)CC(=O)N[C@H](C(=O)NCc1cccc(C(=O)O)c1)C(C)C` was above 91000 nM; that for `CSCC[C@H](NC(=O)[C@H](CC(C)C)NC(C)=O)C(=O)N[C@@H](CC(C)C)[C@@H](O)CC(=O)N[C@@H](C(=O)NCc1cccc(C(=O)O)c1)C(C)C` was above 91000 nM. To `CC[C@H](C)[C@H](NC(C)=O)C(=O)N[C@@H](C)C(=O)N[C@@H](CC(C)C)[C@@H](O)CC(=O)N[C@@H](Cc1ccccc1)C(=O)NCc1cccc(C(=O)O)c1` (Ac-IA[Sta]F[3Amb]-OH) belongs 250 nM; to `CC[C@H](C)[C@H](NC(C)=O)C(=O)N[C@@H](C)C(=O)N[C@@H](CC(C)C)[C@@H](O)CC(=O)N[C@@H](CC(C)C)C(=O)NCc1cccc(C(=O)O)c1` (Ac-IA[Sta]L[3Amb]-OH), 260 nM. To `CC[C@H](C)[C@H](NC(C)=O)C(=O)N[C@@H](C)C(=O)N[C@@H](CC(C)C)[C@@H](O)CC(=O)N[C@@H](Cc1ccc(O)cc1)C(=O)NCc1cccc(C(=O)O)c1` (Ac-IA[Sta]Y[3Amb]-OH) belongs 110 nM; to `CCCC[C@H](NC(=O)C[C@H](O)[C@H](CC(C)C)NC(=O)[C@H](C)NC(=O)[C@@H](NC(C)=O)[C@@H](C)CC)C(=O)NCc1cccc(C(=O)O)c1` (Ac-IA[Sta][Nle][3Amb]-OH), 180 nM. For `CC[C@H](C)[C@H](NC(C)=O)C(=O)N[C@@H](CCSC)C(=O)N[C@@H](CC(C)C)[C@@H](O)CC(=O)N[C@@H](Cc1ccccc1)C(=O)NCc1cccc(C(=O)O)c1` (Ac-IM[Sta]F[3Amb]-OH), the half-maximal inhibitory concentration (IC50) came to 140 nM.

`CC[C@H](C)[C@H](NC(C)=O)C(=O)N[C@@H](CCSC)C(=O)N[C@@H](CC(C)C)[C@@H](O)CC(=O)N[C@@H](Cc1ccc(O)cc1)C(=O)NCc1cccc(C(=O)O)c1` (Ac-IM[Sta]Y[3Amb]-OH) gave an IC50 of 91 nM. For the compound `CCCC[C@H](NC(=O)C[C@H](O)[C@H](CC(C)C)NC(=O)[C@H](CCSC)NC(=O)[C@@H](NC(C)=O)[C@@H](C)CC)C(=O)NCc1cccc(C(=O)O)c1` (Ac-IM[Sta][Nle][3Amb]-OH), the IC50 worked out at 86 nM.

On to `CCC[C@H](NC(=O)C[C@H](O)[C@H](CC(C)C)NC(=O)[C@H](CCSC)NC(=O)[C@@H](NC(C)=O)[C@@H](C)CC)C(=O)NCc1cccc(C(=O)O)c1` (Ac-IM[Sta][Nva][3Amb]-OH), for which 130 nM corresponded to half-maximal inhibition (IC50). For the compound `CC(=O)N[C@H](C(=O)N[C@@H](C)C(=O)N[C@@H](CC(C)C)[C@@H](O)CC(=O)N[C@H](C(=O)NCc1cccc(C(=O)O)c1)C(C)C)C(C)C` (Ac-VA[Sta]V[3Amb]-OH), half-maximal inhibition (IC50) was put at 3800 nM. To `CCCC[C@H](NC(C)=O)C(=O)N[C@@H](C)C(=O)N[C@@H](CC(C)C)[C@@H](O)CC(=O)N[C@H](C(=O)NCc1cccc(C(=O)O)c1)C(C)C` (Ac-[Nle]A[Sta]V[3Amb]-OH) belongs 1400 nM; to `CCC[C@H](NC(C)=O)C(=O)N[C@@H](C)C(=O)N[C@@H](CC(C)C)[C@@H](O)CC(=O)N[C@H](C(=O)NCc1cccc(C(=O)O)c1)C(C)C` (Ac-[Nva]A[Sta]V[3Amb]-OH), 830 nM; to `CC(C)C[C@H](NC(=O)[C@H](C)NC(=O)[C@@H](NC(=O)[C@@H](N)CCC(=O)O)C(C)C)[C@@H](O)CC(=O)N[C@H](C(=O)N[C@@H](C)C(=O)N[C@@H](CCC(=O)O)C(=O)N[C@@H](Cc1ccccc1)C(=O)O)C(C)C` (H-EVA[Sta]VAEF-OH), 110 nM. The value for `CC[C@H](C)[C@H](NC(=O)C[C@H](O)[C@H](CC(C)C)NC(=O)[C@H](CCSC)NC(=O)[C@@H](NC(=O)[C@@H](N)CCC(=O)O)C(C)C)C(=O)N[C@@H](C)C(=O)N[C@@H](CCC(=O)O)C(=O)N[C@@H](Cc1ccccc1)C(=O)O` (H-EVM[Sta]IAEF-OH) was 220 nM. Compound `CSCC[C@H](NC(=O)[C@@H](NC(=O)[C@@H](N)CCC(=O)O)C(C)C)C(=O)N[C@@H](CC(C)C)[C@@H](O)CC(=O)N[C@@H](CC(C)C)C(=O)N[C@@H](C)C(=O)N[C@@H](CCC(=O)O)C(=O)N[C@@H](Cc1ccccc1)C(=O)O` (H-EVM[Sta]LAEF-OH) returned an IC50 of 140 nM.

For the compound `CSCC[C@H](NC(=O)[C@@H](NC(=O)[C@@H](N)CCC(=O)O)C(C)C)C(=O)N[C@@H](CC(C)C)[C@@H](O)CC(=O)N[C@H](C(=O)N[C@@H](C)C(=O)N[C@@H](CCC(=O)O)C(=O)N[C@@H](Cc1ccccc1)C(=O)O)C(C)C` (H-EVM[Sta]VAEF-OH), the IC50 was 58 nM. The value for `CC(C)C[C@H](NC(=O)[C@H](CC(N)=O)NC(=O)[C@@H](NC(=O)[C@@H](N)CCC(=O)O)C(C)C)[C@@H](O)CC(N)=O` (H-EVN[Sta]-NH2) was above 91000 nM; that for `CC(C)C[C@H](NC(=O)[C@H](CC(N)=O)NC(=O)[C@@H](NC(=O)[C@@H](N)CCC(=O)O)C(C)C)[C@@H](O)CC(=O)N[C@H](C(N)=O)C(C)C` (H-EVN[Sta]V-NH2) was 9400 nM; that for `CC(C)C[C@H](NC(=O)[C@H](CC(N)=O)NC(=O)[C@@H](NC(=O)[C@@H](N)CCC(=O)O)C(C)C)[C@@H](O)CC(=O)N[C@H](C(=O)N[C@@H](C)C(N)=O)C(C)C` (H-EVN[Sta]VA-NH2) was 530 nM. To `CC(C)C[C@H](NC(=O)[C@H](CC(N)=O)NC(=O)[C@@H](NC(=O)[C@@H](N)CCC(=O)O)C(C)C)[C@@H](O)CC(=O)N[C@H](C(=O)N[C@@H](C)C(=O)N[C@@H](CCC(=O)O)C(N)=O)C(C)C` (H-EVN[Sta]VAE-NH2) belongs 110 nM; to `CC(C)C[C@H](NC(=O)[C@H](CC(N)=O)NC(=O)[C@@H](NC(=O)[C@@H](N)CCC(=O)O)C(C)C)[C@@H](O)CC(=O)N[C@H](C(=O)N[C@@H](C)C(=O)N[C@@H](CCC(=O)O)C(=O)N[C@@H](Cc1ccccc1)C(=O)O)C(C)C` (H-EVN[Sta]VAEF-OH), 46 nM; to `CC(C)C[C@H](NC(=O)[C@@H](N)CC(N)=O)[C@@H](O)CC(=O)N[C@H](C(=O)N[C@@H](C)C(=O)N[C@@H](CCC(=O)O)C(=O)N[C@@H](Cc1ccccc1)C(=O)O)C(C)C` (H-N[Sta]VAEF-OH), above 91000 nM. The value for `CC(C)C[C@H](NC(=O)[C@H](CC(N)=O)NC(=O)[C@@H](N)C(C)C)[C@@H](O)CC(=O)N[C@H](C(=O)N[C@@H](C)C(=O)N[C@@H](CCC(=O)O)C(=O)N[C@@H](Cc1ccccc1)C(=O)O)C(C)C` (H-VN[Sta]VAEF-OH) was 2000 nM.

For `CC[C@H](C)[C@H](NC(=O)C1CCCCO1)C(=O)N[C@@H](C)C(=O)N[C@@H](CC(C)C)[C@@H](O)CC(=O)N[C@H](C(=O)NCc1cccc(C(=O)O)c1)C(C)C` (stereo not given in full) (X1-IA[Sta]V[3Amb]-OH), the IC50 was 69 nM.
